Data: the supplement of paper PMC10307832

How the values were obtained:
Experiment in all cases: relative viability (nuclei count vs DMSO), 5 days (fraction); higher = more cells survive
Erlotinib + Phenformin = compound: C#Cc1cccc(Nc2ncnc3cc(OCCOC)c(OCCOC)cc23)c1 [Erlotinib] + N=C(N)NC(=N)NCCc1ccccc1 [Phenformin] (partner 250 µM)
Method in brief: (§1)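 Lung cancer cell lines were pin-tool dosed in 1536-well plates on the day after seeding, with either a lone drug or a fixed anchor-drug dose plus five library-drug doses (not always all listed) in √10 steps. Nuclei were counted on 4× images after 5 days. Relative viability is the ratio of treated-well to vehicle-well nuclei counts, with each value a median of duplicate plates.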

Erlotinib + Trametinib = compound: C#Cc1cccc(Nc2ncnc3cc(OCCOC)c(OCCOC)cc23)c1 [Erlotinib] + CC(=O)Nc1cccc(-n2c(=O)n(C3CC3)c(=O)c3c(Nc4ccc(I)cc4F)n(C)c(=O)c(C)c32)c1 [Trametinib] (partner 0.02 µM)
Method in brief: as §1

AT9283 + Alpelisib = compound: O=C(Nc1c[nH]nc1-c1nc2ccc(CN3CCOCC3)cc2[nH]1)NC1CC1 [AT9283] + Cc1nc(NC(=O)N2CCC[C@H]2C(N)=O)sc1-c1ccnc(C(C)(C)C(F)(F)F)c1 [Alpelisib] (partner 2 µM)
Method in brief: as §1

| Cell Line | relative viability (Erlotinib + Phenformin; first compound 0.02 µM) | relative viability (Erlotinib + Phenformin; first compound 0.2 µM) | relative viability (Erlotinib + Phenformin; first compound 0.6325 µM) | relative viability (Erlotinib + Phenformin; first compound 2 µM) | relative viability (Erlotinib + Trametinib; first compound 0.02 µM) | relative viability (Erlotinib + Trametinib; first compound 0.2 µM) | relative viability (Erlotinib + Trametinib; first compound 0.6325 µM) | relative viability (Erlotinib + Trametinib; first compound 2 µM) | relative viability (AT9283 + Alpelisib; first compound 0.003 µM) | relative viability (AT9283 + Alpelisib; first compound 0.03 µM) | relative viability (AT9283 + Alpelisib; first compound 0.09487 µM) | relative viability (AT9283 + Alpelisib; first compound 0.3 µM) |
| --- | --- | --- | --- | --- | --- | --- | --- | --- | --- | --- | --- | --- |
| NCI-H522 | 0.602 | 0.615 | 0.691 | 0.612 | 0.665 | 0.697 | 0.705 | 0.676 |  |  |  |  |
| NCI-H23 |  | 0.662 | 0.684 | 0.72 | 0.36 | 0.349 | 0.385 | 0.306 | 0.707 | 0.668 | 0.396 | 0.168 |
| ChaGo-K-1 | 0.507 | 0.445 | 0.482 | 0.437 | 0.886 | 0.874 | 0.909 | 0.832 |  |  |  |  |
| NCI-H1563 | 0.63 | 0.602 | 0.708 | 0.6 |  |  |  |  | 1.08 | 0.81 | 0.732 | 0.628 |
| NCI-H1623 | 0.559 | 0.528 | 0.227 | 0.264 |  |  |  |  |  |  |  |  |
| NCI-H1915 | 0.398 | 0.378 | 0.383 | 0.35 | 0.304 | 0.308 | 0.329 | 0.285 | 1.01 | 1.06 | 0.24 | 0.222 |
| LU99A | 0.942 | 0.794 | 0.886 | 0.841 | 0.705 | 0.583 | 0.643 | 0.484 | 0.489 | 0.222 | 0.144 | 0.152 |
| LCLC-103H | 0.335 | 0.347 | 0.356 | 0.289 | 0.727 | 0.636 | 0.661 | 0.62 | 0.89 | 1.09 | 1.11 | 0.332 |
| A549 | 0.225 | 0.196 | 0.178 | 0.199 |  |  |  |  | 0.973 | 0.0793 | 0.0636 | 0.068 |
| RERF-LC-KJ | 0.393 | 0.372 | 0.311 | 0.337 | 0.913 | 0.774 | 0.799 | 0.613 | 0.808 | 0.738 | 0.441 | 0.251 |
| NCI-H1755 | 0.614 |  | 0.642 | 0.582 | 0.793 | 0.774 | 0.816 | 0.737 | 0.996 | 0.874 | 0.35 | 0.381 |
| NCI-H596 | 0.745 | 0.698 | 0.735 | 0.688 | 0.745 | 0.75 | 0.886 | 0.751 | 0.508 | 0.509 | 0.531 | 0.496 |
| IA-LM |  |  |  |  |  |  |  |  | 0.891 | 0.418 | 0.199 | 0.0959 |
| NCI-H1734 | 0.4 | 0.378 | 0.391 | 0.359 | 0.74 | 0.718 | 0.619 | 0.634 | 0.696 | 0.497 | 0.283 | 0.292 |
| NCI-H661 | 0.301 | 0.264 | 0.269 | 0.318 | 0.601 | 0.483 | 0.593 | 0.457 | 0.627 | 0.427 | 0.329 | 0.36 |
| NCI-H2009 | 0.533 | 0.51 | 0.529 | 0.49 | 0.385 | 0.306 | 0.301 | 0.239 | 1.13 | 1.05 | 0.734 | 0.401 |
| NCI-H1650 | 0.4 | 0.263 | 0.411 | 0.274 | 0.477 | 0.443 | 0.561 | 0.382 |  |  |  |  |
